Reference: ChEMBL document CHEMBL6121004, “Design, synthesis, and biological evaluation of Ponatinib-based N-Phenylpyrimidine-2-amine derivatives as novel fibroblast growth factor receptor 4 (FGFR4) selective inhibitors” (Eur J Med Chem, 2025)
Activity calls are given as the source filed them. The rule behind the calls is not given here.

Tests used:
Huh-7 [1] = experiment: Induction of apoptosis in human Huh-7 cells assessed as late apoptotic cells at 1 uM incubated for 48 hrs by annexin V-FITC/propidium iodide staining based flow cytometry analysis (reference value: 5.20%); type: functional
[2] = AUC (0 to t) in BALB/c male mouse at 1 mg/kg, iv measured upto 24 hrs by LC-MS/MS analysis; type: ADME, organism-based; settings: in vivo
Hep 3B2 [3] = experiment: Induction of apoptosis in human Hep3B cells assessed as necrotic cells at 0.5 uM incubated for 48 hrs by annexin V-FITC/propidium iodide staining based flow cytometry analysis (reference value: 5.20%); type: functional
[4] = target: Tyrosine-protein kinase ABL2 (Homo sapiens) (UniProt P42684); experiment: Inhibition of ABL2 (unknown origin) at 1 uM relative to control
[5] = Oral bioavailability in BALB/c male mouse at 10 mg/kg measured upto 24 hrs by LC-MS/MS analysis; type: ADME, organism-based; settings: in vivo
[6] = GSH reactivity in potassium phosphate buffer at pH 7.4 assessed as half life at 1 uM measured at 2 to 1440 mins by LC-MS/MS analysis; type: physicochemical; settings: potassium phosphate buffer with GSH, time 2-1440 min
Huh-7 [7] = experiment: Induction of apoptosis in human Huh-7 cells assessed as necrotic cells at 0.5 uM incubated for 48 hrs by annexin V-FITC/propidium iodide staining based flow cytometry analysis (reference value: 5.20%); type: functional
Huh-7 [8] = experiment: Antitumor activity against human Huh-7 cells xenografted in nude mouse assessed as tumor growth inhibition at 25 mg/kg, ip administered for 15 days; type: functional; settings: Huh-7, 360 h, time 15 day, read-out: TGI
Huh-7 [9] = experiment: Induction of apoptosis in human Huh-7 cells assessed as viable cells at 1 uM incubated for 48 hrs by annexin V-FITC/propidium iodide staining based flow cytometry analysis (reference value: 84.91%); type: functional; settings: read-out: Activity
[10] = Toxicity in male nude mouse implanted with human Huh-7 cells assessed as kidney damage at 12.5 to 50 mg/kg, ip administered for 15 days; type: organism-based; settings: in vivo, 360 h, dose 12.5-50 mg/kg, time 15 day
Huh-7 [11] = experiment: Antitumor activity against human Huh-7 cells xenografted in nude mouse assessed as tumor growth inhibition at 12.5 mg/kg, ip administered for 15 days; type: functional; settings: Huh-7, 360 h, time 15 day, read-out: TGI
Huh-7 [12] = experiment: Antiproliferative activity against human Huh-7 cells assessed as cell viability at […] pre-incubated with compound for 12 hrs followed by compound washout and measured after 4 days; type: functional, cell-based; settings: dose 1.6 µM
Hep 3B2 [13] = experiment: Induction of apoptosis in human Hep3B cells assessed as early apoptotic cells at 0.5 uM incubated for 48 hrs by annexin V-FITC/propidium iodide staining based flow cytometry analysis (reference value: 4.69%); type: functional
[14] = Tmax in BALB/c male mouse at 10 mg/kg, po measured upto 24 hrs by LC-MS/MS analysis; type: ADME, organism-based; settings: in vivo
[15] = Clearance in BALB/c male mouse at 1 mg/kg, iv measured upto 24 hrs by LC-MS/MS analysis; type: ADME, organism-based; settings: in vivo
Huh-7 [16] = experiment: Antitumor activity against human Huh-7 cells xenografted in nude mouse assessed as tumor growth inhibition at 50 mg/kg, ip administered for 15 days; type: functional; settings: Huh-7, 360 h, time 15 day, read-out: TGI
[17] = Toxicity in male nude mouse implanted with human Huh-7 cells assessed as liver damage at 12.5 to 50 mg/kg, ip administered for 15 days; type: organism-based; settings: in vivo, 360 h, dose 12.5-50 mg/kg, time 15 day
[18] = Cmax in BALB/c male mouse at 10 mg/kg, po measured upto 24 hrs by LC-MS/MS analysis; type: ADME, organism-based; settings: in vivo
Huh-7 [19] = experiment: Downregulation of FAK level in human Huh-7 cells at 0.25 to 1 uM incubated for 48 hrs by Western blot analysis; type: functional, cell-based; settings: dose 0.25-1 µM
Huh-7 [20] = experiment: Induction of apoptosis in human Huh-7 cells assessed as late apoptotic cells at 0.5 uM incubated for 48 hrs by annexin V-FITC/propidium iodide staining based flow cytometry analysis (reference value: 5.20%); type: functional

Chain of Tyrosine-protein kinase ABL2 (Homo sapiens) (P42684 whole entry): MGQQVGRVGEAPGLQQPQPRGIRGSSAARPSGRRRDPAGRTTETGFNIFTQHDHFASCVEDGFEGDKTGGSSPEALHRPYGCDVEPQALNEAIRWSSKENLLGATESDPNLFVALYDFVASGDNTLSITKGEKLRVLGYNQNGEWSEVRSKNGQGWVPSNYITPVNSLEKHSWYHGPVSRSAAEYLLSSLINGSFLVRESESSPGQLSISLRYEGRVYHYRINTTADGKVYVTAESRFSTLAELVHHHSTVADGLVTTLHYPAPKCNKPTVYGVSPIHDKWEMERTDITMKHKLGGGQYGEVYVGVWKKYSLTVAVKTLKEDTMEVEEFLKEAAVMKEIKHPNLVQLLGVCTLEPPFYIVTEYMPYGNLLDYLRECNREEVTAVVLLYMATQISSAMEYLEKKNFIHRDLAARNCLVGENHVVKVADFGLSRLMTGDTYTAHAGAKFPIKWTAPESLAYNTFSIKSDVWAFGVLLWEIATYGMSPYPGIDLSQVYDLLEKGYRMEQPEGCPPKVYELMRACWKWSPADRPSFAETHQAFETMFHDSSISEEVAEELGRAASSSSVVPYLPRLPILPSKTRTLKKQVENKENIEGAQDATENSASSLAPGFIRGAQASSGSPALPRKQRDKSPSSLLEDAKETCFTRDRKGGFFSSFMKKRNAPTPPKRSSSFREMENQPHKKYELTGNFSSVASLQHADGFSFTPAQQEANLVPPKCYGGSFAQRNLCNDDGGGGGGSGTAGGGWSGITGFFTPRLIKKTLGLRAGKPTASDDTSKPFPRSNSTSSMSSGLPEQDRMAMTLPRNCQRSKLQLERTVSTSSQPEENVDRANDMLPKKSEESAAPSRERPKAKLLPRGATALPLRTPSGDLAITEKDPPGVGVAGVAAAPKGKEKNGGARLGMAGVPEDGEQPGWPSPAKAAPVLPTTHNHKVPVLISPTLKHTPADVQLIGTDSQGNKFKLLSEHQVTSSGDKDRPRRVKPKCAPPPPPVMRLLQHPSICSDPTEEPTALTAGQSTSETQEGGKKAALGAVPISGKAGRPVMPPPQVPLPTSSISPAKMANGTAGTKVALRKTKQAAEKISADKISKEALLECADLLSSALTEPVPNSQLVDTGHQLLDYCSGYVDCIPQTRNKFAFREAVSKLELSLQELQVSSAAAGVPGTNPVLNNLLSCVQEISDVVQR

AUC(0-t) at 24 h [2]: 241 ng·h/mL
inhibition [4]: < 70%
bioavailability [5]: 17.8%
half-life at 1 µM [6]: 1.35 h
Tmax [14]: 1 h
clearance [15]: 67.9 mL/min/kg
Cmax [18]: 91.3 ng/mL
SMILES: C=CC(=O)Nc1cccc(C)c1Nc1ncc(C#Cc2cccc(C(=O)Nc3ccc(CN4CCN(C)CC4)c(C(F)(F)F)c3)c2)cn1
Activity (Huh-7 [1]): 25.23%
Activity (Hep 3B2 [3]): 6.93%
Activity (Huh-7 [7]): 8.41%
inhibition in vivo at 25 mg/kg (Huh-7 [8]): 50.3%
viability at 1 µM (Huh-7 [9]): 63%
Activity [10]: Non-toxic
inhibition in vivo at 12.5 mg/kg (Huh-7 [11]): 34.9%
Activity (Huh-7 [12]): Active
Activity (Hep 3B2 [13]): 5.73%
inhibition in vivo at 50 mg/kg (Huh-7 [16]): 69.8%
Activity [17]: Non-toxic
Activity (Huh-7 [19]): Active
Activity (Huh-7 [20]): 11.2%
